Experimental data reported in the supplement of paper PMC10307832.

Experiments:
Experiment in all cases: relative viability (nuclei count vs DMSO), 5 days (fraction); higher = more cells survive
SW 1573 = test system: SW 1573
Procedure, shortened: (§1)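 One day after seeding in 1536-well plates, lung cancer cell lines were dosed by pin tool. Dosing was either single-drug or a fixed anchor-drug dose plus five library-drug doses (not always all listed) in √10 steps. After 5 days, nuclei were stained in one fix-and-stain step and counted on 4× images, and relative viability is the nuclei count of treated wells over that of vehicle wells, given as the median of duplicate plates.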

NCI-H1793 = test system: NCI-H1793
Procedure, shortened: as §1

NCI-H1975 = test system: NCI-H1975
Procedure, shortened: as §1

NCI-H650 = test system: NCI-H650
Procedure, shortened: as §1

COR-L23 = test system: COR-L23
Procedure, shortened: as §1

NCI-H2023 = test system: NCI-H2023
Procedure, shortened: as §1

NCI-H1993 = test system: NCI-H1993
Procedure, shortened: as §1

LOU-NH91 = test system: LOU-NH91
Procedure, shortened: as §1

BEN = test system: BEN
Procedure, shortened: as §1

NCI-H1395 = test system: NCI-H1395
Procedure, shortened: as §1

HARA = test system: HARA
Procedure, shortened: as §1

RERF-LC-KJ = test system: RERF-LC-KJ
Procedure, shortened: as §1

NCI-H2228 = test system: NCI-H2228
Procedure, shortened: as §1

NCI-H1915 = test system: NCI-H1915
Procedure, shortened: as §1

NCI-H2405 = test system: NCI-H2405
Procedure, shortened: as §1

LU99A = test system: LU99A
Procedure, shortened: as §1

EKVX = test system: EKVX
Procedure, shortened: as §1

A-427 = test system: A-427
Procedure, shortened: as §1

NCI-H1666 = test system: NCI-H1666
Procedure, shortened: as §1

NCI-H1650 = test system: NCI-H1650
Procedure, shortened: as §1

NCI-H460 = test system: NCI-H460
Procedure, shortened: as §1

NCI-H838 = test system: NCI-H838
Procedure, shortened: as §1

COCC1(CO)C(=O)C2CCN1CC2 (stereo not drawn) [PRIMA-1MET] + Cc1nc(Nc2ncc(C(=O)Nc3c(C)cccc3Cl)s2)cc(N2CCN(CCO)CC2)n1 [Dasatinib] (partner 0.075 µM)
relative viability (SW 1573; first compound 0.2 µM): 0.452
relative viability (SW 1573; first compound 0.6325 µM): 0.411
relative viability (SW 1573; first compound 2 µM): 0.356
relative viability (SW 1573; first compound 6.325 µM): 0.0331
relative viability (SW 1573; first compound 20 µM): 0.0202
relative viability (NCI-H1793; first compound 0.2 µM): 0.431
relative viability (NCI-H1793; first compound 0.6325 µM): 0.365
relative viability (NCI-H1793; first compound 6.325 µM): 0.404
relative viability (NCI-H1793; first compound 20 µM): 0.35
relative viability (NCI-H1975; first compound 0.2 µM): 0.359
relative viability (NCI-H1975; first compound 0.6325 µM): 0.349
relative viability (NCI-H1975; first compound 2 µM): 0.366
relative viability (NCI-H1975; first compound 6.325 µM): 0.375
relative viability (NCI-H1975; first compound 20 µM): 0.19
relative viability (NCI-H650; first compound 0.2 µM): 0.565
relative viability (NCI-H650; first compound 2 µM): 0.469
relative viability (NCI-H650; first compound 6.325 µM): 0.472
relative viability (NCI-H650; first compound 20 µM): 0.454
relative viability (COR-L23; first compound 0.2 µM): 0.508
relative viability (COR-L23; first compound 0.6325 µM): 0.478
relative viability (COR-L23; first compound 2 µM): 0.595
relative viability (COR-L23; first compound 6.325 µM): 0.432
relative viability (COR-L23; first compound 20 µM): 0.0161
relative viability (NCI-H2023; first compound 0.2 µM): 0.601
relative viability (NCI-H2023; first compound 0.6325 µM): 0.586
relative viability (NCI-H2023; first compound 2 µM): 0.567
relative viability (NCI-H2023; first compound 6.325 µM): 0.57
relative viability (NCI-H2023; first compound 20 µM): 0.229
relative viability (NCI-H1993; first compound 0.2 µM): 0.596
relative viability (NCI-H1993; first compound 0.6325 µM): 0.587
relative viability (NCI-H1993; first compound 2 µM): 0.574
relative viability (NCI-H1993; first compound 6.325 µM): 0.554
relative viability (NCI-H1993; first compound 20 µM): 0.582
relative viability (LOU-NH91; first compound 0.2 µM): 0.608
relative viability (LOU-NH91; first compound 0.6325 µM): 0.508
relative viability (LOU-NH91; first compound 2 µM): 0.569
relative viability (LOU-NH91; first compound 6.325 µM): 0.578
relative viability (LOU-NH91; first compound 20 µM): 0.483
relative viability (BEN; first compound 0.2 µM): 0.306
relative viability (BEN; first compound 0.6325 µM): 0.279
relative viability (BEN; first compound 6.325 µM): 0.271
relative viability (BEN; first compound 20 µM): 0.339
relative viability (NCI-H1395; first compound 0.2 µM): 0.409
relative viability (NCI-H1395; first compound 0.6325 µM): 0.458
relative viability (NCI-H1395; first compound 2 µM): 0.493
relative viability (NCI-H1395; first compound 6.325 µM): 0.38
relative viability (NCI-H1395; first compound 20 µM): 0.396
relative viability (HARA; first compound 0.2 µM): 0.303
relative viability (HARA; first compound 0.6325 µM): 0.257
relative viability (HARA; first compound 6.325 µM): 0.294
relative viability (HARA; first compound 20 µM): 0.252
relative viability (RERF-LC-KJ; first compound 0.2 µM): 0.759
relative viability (RERF-LC-KJ; first compound 0.6325 µM): 0.833
relative viability (RERF-LC-KJ; first compound 2 µM): 0.931
relative viability (RERF-LC-KJ; first compound 6.325 µM): 0.895
relative viability (RERF-LC-KJ; first compound 20 µM): 0.673
relative viability (NCI-H2228; first compound 0.2 µM): 0.638
relative viability (NCI-H2228; first compound 0.6325 µM): 0.399
relative viability (NCI-H2228; first compound 2 µM): 0.541
relative viability (NCI-H2228; first compound 6.325 µM): 0.392
relative viability (NCI-H2228; first compound 20 µM): 0.0268
relative viability (NCI-H1915; first compound 0.2 µM): 0.328
relative viability (NCI-H1915; first compound 0.6325 µM): 0.284
relative viability (NCI-H1915; first compound 6.325 µM): 0.269
relative viability (NCI-H1915; first compound 20 µM): 0.272
relative viability (NCI-H2405; first compound 0.2 µM): 0.197
relative viability (NCI-H2405; first compound 0.6325 µM): 0.199
relative viability (NCI-H2405; first compound 6.325 µM): 0.169
relative viability (NCI-H2405; first compound 20 µM): 0.0902
relative viability (LU99A; first compound 0.2 µM): 0.612
relative viability (LU99A; first compound 0.6325 µM): 0.513
relative viability (LU99A; first compound 2 µM): 0.586
relative viability (LU99A; first compound 6.325 µM): 0.671
relative viability (LU99A; first compound 20 µM): 0.0333
relative viability (EKVX; first compound 0.2 µM): 0.469
relative viability (EKVX; first compound 0.6325 µM): 0.482
relative viability (EKVX; first compound 2 µM): 0.468
relative viability (EKVX; first compound 6.325 µM): 0.518
relative viability (EKVX; first compound 20 µM): 0.564
relative viability (A-427; first compound 0.2 µM): 0.547
relative viability (A-427; first compound 0.6325 µM): 0.577
relative viability (A-427; first compound 2 µM): 0.721
relative viability (A-427; first compound 6.325 µM): 0.602
relative viability (A-427; first compound 20 µM): 0.15
relative viability (NCI-H1666; first compound 0.2 µM): 0.801
relative viability (NCI-H1666; first compound 0.6325 µM): 0.79
relative viability (NCI-H1666; first compound 2 µM): 0.807
relative viability (NCI-H1666; first compound 6.325 µM): 0.846
relative viability (NCI-H1666; first compound 20 µM): 0.639
relative viability (NCI-H1650; first compound 0.2 µM): 0.341
relative viability (NCI-H1650; first compound 0.6325 µM): 0.327
relative viability (NCI-H1650; first compound 2 µM): 0.337
relative viability (NCI-H1650; first compound 6.325 µM): 0.282
relative viability (NCI-H1650; first compound 20 µM): 0.06
relative viability (NCI-H460; first compound 0.2 µM): 0.495
relative viability (NCI-H460; first compound 0.6325 µM): 0.321
relative viability (NCI-H460; first compound 2 µM): 0.511
relative viability (NCI-H460; first compound 6.325 µM): 0.518
relative viability (NCI-H460; first compound 20 µM): 0.196
relative viability (NCI-H838; first compound 0.2 µM): 0.31
relative viability (NCI-H838; first compound 0.6325 µM): 0.279
relative viability (NCI-H838; first compound 6.325 µM): 0.279
relative viability (NCI-H838; first compound 20 µM): 0.456
